The test system of experiment [1] is Triton WR 1339 induced dyslipidemia in Albino rats (Sprague Dawley strain). Nature of the experiment: Single dosage study compared with other amla extracts, Triton WR 1339 model (Example 21). The experiment is classed as in vivo, rat. Here is the method: Forty eight male Albino rats (Sprague Dawley strain) weighing approximate 250-300 gm were selected for the study. The animals were kept in the animal house maintained at temp 24±2° C., 65% relative humidity and 12 hr light/dark cycle. The rats were acclimatized for two weeks and during this period they had access to standard pellet diet and water ad libitum. After two weeks of acclimatization, all the rats were fasted overnight before injecting Triton WR 1339 (Tyloxapol) and administration of test extracts/standard. The animals were divided into eight groups. Following treatment was given to overnight fasted rats: • Group I: Normal control (vehicle only). • Group II: Triton WR 1339 (300 mg/kg, intraperitoneal). • Group III: Triton WR 1339 (300 mg/kg, intraperitoneal) followed by amla seed extract prepared as per example 1 (2.5 mg/kg, per oral). • Group IV: Triton WR 1339 (300 mg/kg, intraperitoneal) followed by amla extract prepared as per example 3 (2.5 mg/kg, per oral). • Group V: Triton WR 1339 (300 mg/kg, intraperitoneal) followed by amla extract prepared as per example 4 (2.5 mg/kg, per oral). • Group VI: Triton WR 1339 (300 mg/kg, intraperitoneal) followed by amla extract prepared as per example 5 (2.5 mg/kg, per oral). • Group VII: Triton WR 1339 (300 mg/kg, intraperitoneal) followed by amla extract prepared as per example 6 (2.5 mg/kg, per oral). • Group VIII: Triton WR 1339 (300 mg/kg, intraperitoneal) followed by atorvastatin (10 mg/kg, per oral).
(§1) The animals were deprived of food for next 24 hours but had free access to water ad libitum. After 24 hour of drug treatment 2 ml blood samples were collected from the retro orbital plexus. The blood was allowed to clot and then centrifuged at 3000 rpm for 10 min and the serum was carefully drawn and collected into separate tubes. The serum was analyzed for total cholesterol, triglycerides, high density lipoproteins (HDL), low density lipoproteins (LDL) and very low density lipoproteins (VLDL) levels using auto-analyzer.

Experiment [2] shares this test system. Briefly: Hypolipidemic activity in different doses, Triton WR 1339 induced dyslipidemia model (Example 19). The experiment is classed as in vivo, rat. As to the method:
Sixty male Albino rats (Sprague Dawley strain) weighing approximate 250-300 gm were selected for the study. The animals were kept in the animal house maintained at temp 24±2° C., 65% relative humidity and 12 hr light/dark cycle. The rats were acclimatized for two weeks and during this period they had access to standard pellet diet and water ad libitum. After two weeks of acclimatization, all the rats were fasted overnight before injecting Triton WR 1339 (Tyloxapol) and administration of test extracts/standard. The animals were divided into ten groups. Following treatment was given to overnight fasted rats: • Group I: Normal control (vehicle only). • Group II: Triton WR 1339 (300 mg/kg, intraperitoneal). • Group III: Triton WR 1339 (300 mg/kg, intraperitoneal) followed by amla seed extract prepare as per example 1 (10 mg/kg, per oral). • Group IV: Triton WR 1339 (300 mg/kg, intraperitoneal) followed by amla seed extract prepare as per example 1 (7.5 mg/kg, per oral). • Group V: Triton WR 1339 (300 mg/kg, intraperitoneal) followed by amla seed extract prepare as per example 1 (5 mg/kg, per oral). • Group VI: Triton WR 1339 (300 mg/kg, intraperitoneal) followed by amla seed extract prepare as per example 1 (2.5 mg/kg, per oral). • Group VII: Triton WR 1339 (300 mg/kg, intraperitoneal) followed by amla seed extract prepare as per example 1 (2 mg/kg, per oral). • Group VIII: Triton WR 1339 (300 mg/kg, intraperitoneal) followed by amla seed extract prepare as per example 1 (1 mg/kg, per oral). • Group IX: Triton WR 1339 (300 mg/kg, intraperitoneal) followed by amla seed extract prepare as per example 1 (0.5 mg/kg, per oral). • Group X: Triton WR 1339 (300 mg/kg, intraperitoneal) followed by atorvastatin (10 mg/kg. per oral).
as §1

The mark [3] stands for this setting: 24 h after Triton i.p. + 10 mg/kg p.o.

The structures appear in SMILES notation.

In the case of `CC(C)c1c(C(=O)Nc2ccccc2)c(-c2ccccc2)c(-c2ccc(F)cc2)n1CC[C@@H](O)C[C@@H](O)CC(=O)O` [Atorvastatin], in experiment [1] (setting [3]), the “HDL After” value is 36.66 mg/dL, the “LDL After” value is 43.67 mg/dL, the “TC After” value turned out to be 122.54 mg/dL and the “TG After” value was determined as 211.06 mg/dL. Moreover, in experiment [1] (setting [3]), the “VLDL After” value was determined as 42.21 mg/dL. In addition, in experiment [1] (baseline, 10 mg/kg p.o. group), the “HDL Before” value is 39.51 mg/dL, the “LDL Before” value worked out at 51.00 mg/dL, the “TC Before” value was found to be 99.83 mg/dL and the “TG Before” value is 46.59 mg/dL. Further, the “VLDL Before” value in experiment [1] (baseline, 10 mg/kg p.o. group) came out at 9.31 mg/dL. Besides, the “effect on cholesterol and triglyceride level” value in experiment [1] (extracts 2.5 mg/kg, atorvastatin 10 mg/kg p.o.) was “less effective when compared with the amla seed extract”. Also, in experiment [2] (setting [3]), the “HDL After” value was 39.83 mg/dL, the “LDL After” value amounted to 60.23 mg/dL, the “TC After” value came out at 120.83 mg/dL and the “TG After” value turned out to be 103.86 mg/dL. The “VLDL After” value in experiment [2] (setting [3]) was 20.77 mg/dL. Also, the “effect on cholesterol and triglyceride level” value in experiment [2] (amla seed extract 0.5 to 10 mg/kg p.o., atorvastatin 10 mg/kg p.o.) was “effective in lowering the cholesterol as well as triglyceride level”. Also, in experiment [2] (baseline, 10 mg/kg p.o. group), the “HDL Before” value amounted to 31.66 mg/dL, the “LDL Before” value came out at 47.75 mg/dL, the “TC Before” value came out at 87.43 mg/dL and the “TG Before” value was determined as 39.9 mg/dL. Also, the “VLDL Before” value in experiment [2] (baseline, 10 mg/kg p.o. group) was found to be 7.98 mg/dL.

For the origin of these results see US10286022B2, “Medicinal composition of extract of seed of emblica officinalis and method of preparing the same” (priority 2013, dated 2019).
